Patent publication US10807992B2, “Single enantiomer antiparasitic compounds” (priority 2017, dated 2020)

What was measured:
Ctenocephalides felis [1] = assay: In vitro contact activity against fleas (coated substrate); details: for mortality at 0.006 ppm: Trial 3, dose 0.006 ppm; for mortality at 0.024 ppm: Trial 3, dose 0.024 ppm; for mortality at 0.098 ppm: Trial 3, dose 0.098 ppm; for mortality at 0.39 ppm: Trial 3, dose 0.39 ppm; for mortality at 1.56 ppm: Trial 3, dose 1.56 ppm; for mortality at 6.25 ppm: Trial 3, dose 6.25 ppm; for mortality at 25 ppm: Trial 3, dose 25 ppm; for mortality at 100 ppm: Trial 3, dose 100 ppm
Method: (§1) Ctenocephalides felis (Avista Pharma, Inc., RTP, NC), 1-7days post hatch, held in an environmental chamber at 24° C., 85% humidity.
For flea contact tests, vial caps were pre-drilled with a single hole in the center of each cap to allow air exchange. A filter paper (Whatman Grade 540 2.1 cm) was placed in the lid of each vial. Pipe cleaners cut to 0.5 inches were inserted in each test vial. An aliquot was taken from each compound stock and added to an acetone/triton solution to achieve the desired top concentrations for the study. Serial dilutions were conducted from the top dose (i.e. 100 ppm) to achieve the desired concentration for EC50 and EC90 determination. The final DMSO concentration was 0.5%. A 75 μL aliquot of each compound formulation was added to each 0.5 inch pipe cleaner contained in the treatment vial. The vials were loosely capped and allowed to dry for a minimum of four hours in a chemical fume hood.
(§2) Compounds tested were C1 racemate, the C1 (R) enantiomer, and the C1 (S) enantiomer. For Trial 3, the C1 (R) enantiomer and the C1 (S) enantiomer were further chiral purified to achieve >99% purity.
(§3) For both contact and ingestion assays, ten newly emerged unfed adult fleas, 0-7 days old Ctenocephalides felis, from a laboratory colony, were aspirated into each vial or cage. The test vials for contact assays were held in an environmental chamber at 24° C., 80% humidity with light/dark cycles (12 hours each). The cages for flea ingestion assays were held in a temperature-controlled artificial feeding apparatus to allow continual access to organic bovine blood containing the desired concentration of compound. Fresh aliquots of compound-spiked bovine blood were provided daily for the duration of the study.
(§4) Fleas were evaluated for percent mortality at various time points between 2 hours and 48 hours post infestation. Fleas showing normal movement and/or jumping ability were considered viable and those showing no movement after tapping the vials were scored as dead.

Ctenocephalides felis [2] = assay: In vitro ingestion activity against fleas (artificial feeding, bovine blood); details: for mortality at 0.003 ppm: Trial 3, dose 0.003 ppm; for mortality at 0.012 ppm: Trial 3, dose 0.012 ppm; for mortality at 0.049 ppm: Trial 3, dose 0.049 ppm; for mortality at 0.2 ppm: Trial 3, dose 0.20 ppm; for mortality at 0.78 ppm: Trial 3, dose 0.78 ppm; for mortality at 3.125 ppm: Trial 3, dose 3.125 ppm; for mortality at 12.5 ppm: Trial 3, dose 12.5 ppm; for mortality at 50 ppm: Trial 3, dose 50 ppm
Method: as §1
For flea ingestion tests, serial dilutions of the compound stock were performed using DMSO to achieve the desired range for EC50 and EC90 determination. An aliquot of each compound dilution was added to organic bovine blood with a final DMSO concentration of 0.5% and placed in an artificial feeding container.
as §2, §3, §4

O=C(CC(F)(F)F)N1CC2(C1)OCc1cc(C3=NSC(c4cc(Cl)c(F)c(Cl)c4)(C(F)(F)F)C3)ccc12 (racemic) [C1 racemate, 1-[6-[5-(3,5-dichloro-4-fluoro-phenyl)-5-(trifluoromethyl)-4H-isothiazol-3-yl]spiro[1H-isobenzofuran-3,3′-azetidine]-1′-yl]-3,3,3-trifluoro-propan-1-one]
mortality at 0.006 ppm (Ctenocephalides felis [1]; 6 h, Rep1): 0% | mortality at 0.006 ppm (Ctenocephalides felis [1]; 6 h, Rep2): 0% | mortality at 0.024 ppm (Ctenocephalides felis [1]; 6 h, Rep1): 0% | mortality at 0.024 ppm (Ctenocephalides felis [1]; 6 h, Rep2): 0% | mortality at 0.098 ppm (Ctenocephalides felis [1]; 6 h, Rep1): 0% | mortality at 0.098 ppm (Ctenocephalides felis [1]; 6 h, Rep2): 0% | mortality at 0.39 ppm (Ctenocephalides felis [1]; 6 h, Rep1): 0% | mortality at 0.39 ppm (Ctenocephalides felis [1]; 6 h, Rep2): 0% | mortality at 1.56 ppm (Ctenocephalides felis [1]; 6 h, Rep1): 0% | mortality at 1.56 ppm (Ctenocephalides felis [1]; 6 h, Rep2): 0% | mortality at 6.25 ppm (Ctenocephalides felis [1]; 6 h, Rep1): 0% | mortality at 6.25 ppm (Ctenocephalides felis [1]; 6 h, Rep2): 0% | mortality at 25 ppm (Ctenocephalides felis [1]; 6 h, Rep1): 0% | mortality at 25 ppm (Ctenocephalides felis [1]; 6 h, Rep2): 0% | mortality at 100 ppm (Ctenocephalides felis [1]; 6 h, Rep1): 0% | mortality at 100 ppm (Ctenocephalides felis [1]; 6 h, Rep2): 0% | mortality at 0.006 ppm (Ctenocephalides felis [1]; 24 h, Rep1): 0% | mortality at 0.006 ppm (Ctenocephalides felis [1]; 24 h, Rep2): 0% | mortality at 0.024 ppm (Ctenocephalides felis [1]; 24 h, Rep1): 0% | mortality at 0.024 ppm (Ctenocephalides felis [1]; 24 h, Rep2): 0% | mortality at 0.098 ppm (Ctenocephalides felis [1]; 24 h, Rep1): 0% | mortality at 0.098 ppm (Ctenocephalides felis [1]; 24 h, Rep2): 0% | mortality at 0.39 ppm (Ctenocephalides felis [1]; 24 h, Rep1): 0% | mortality at 0.39 ppm (Ctenocephalides felis [1]; 24 h, Rep2): 0% | mortality at 1.56 ppm (Ctenocephalides felis [1]; 24 h, Rep1): 0% | mortality at 1.56 ppm (Ctenocephalides felis [1]; 24 h, Rep2): 0% | mortality at 6.25 ppm (Ctenocephalides felis [1]; 24 h, Rep1): 0% | mortality at 6.25 ppm (Ctenocephalides felis [1]; 24 h, Rep2): 0% | mortality at 25 ppm (Ctenocephalides felis [1]; 24 h, Rep1): 0% | mortality at 25 ppm (Ctenocephalides felis [1]; 24 h, Rep2): 0% | mortality at 100 ppm (Ctenocephalides felis [1]; 24 h, Rep1): 70% | mortality at 100 ppm (Ctenocephalides felis [1]; 24 h, Rep2): 40% | mortality at 0.006 ppm (Ctenocephalides felis [1]; 48 h, Rep1): 0% | mortality at 0.006 ppm (Ctenocephalides felis [1]; 48 h, Rep2): 0% | mortality at 0.024 ppm (Ctenocephalides felis [1]; 48 h, Rep1): 0% | mortality at 0.024 ppm (Ctenocephalides felis [1]; 48 h, Rep2): 0% | mortality at 0.098 ppm (Ctenocephalides felis [1]; 48 h, Rep1): 0% | mortality at 0.098 ppm (Ctenocephalides felis [1]; 48 h, Rep2): 0% | mortality at 0.39 ppm (Ctenocephalides felis [1]; 48 h, Rep1): 0% | mortality at 0.39 ppm (Ctenocephalides felis [1]; 48 h, Rep2): 0% | mortality at 1.56 ppm (Ctenocephalides felis [1]; 48 h, Rep1): 0% | mortality at 1.56 ppm (Ctenocephalides felis [1]; 48 h, Rep2): 0% | mortality at 6.25 ppm (Ctenocephalides felis [1]; 48 h, Rep1): 0% | mortality at 6.25 ppm (Ctenocephalides felis [1]; 48 h, Rep2): 0% | mortality at 25 ppm (Ctenocephalides felis [1]; 48 h, Rep1): 80% | mortality at 25 ppm (Ctenocephalides felis [1]; 48 h, Rep2): 70% | mortality at 100 ppm (Ctenocephalides felis [1]; 48 h, Rep1): 100% | mortality at 100 ppm (Ctenocephalides felis [1]; 48 h, Rep2): 100% | mortality at 0.003 ppm (Ctenocephalides felis [2]; 6 h, Rep1): 0% | mortality at 0.003 ppm (Ctenocephalides felis [2]; 6 h, Rep2): 0% | mortality at 0.012 ppm (Ctenocephalides felis [2]; 6 h, Rep1): 0% | mortality at 0.012 ppm (Ctenocephalides felis [2]; 6 h, Rep2): 0% | mortality at 0.049 ppm (Ctenocephalides felis [2]; 6 h, Rep1): 0% | mortality at 0.049 ppm (Ctenocephalides felis [2]; 6 h, Rep2): 0% | mortality at 0.2 ppm (Ctenocephalides felis [2]; 6 h, Rep1): 10% | mortality at 0.2 ppm (Ctenocephalides felis [2]; 6 h, Rep2): 10% | mortality at 0.78 ppm (Ctenocephalides felis [2]; 6 h, Rep1): 70% | mortality at 0.78 ppm (Ctenocephalides felis [2]; 6 h, Rep2): 90% | mortality at 3.125 ppm (Ctenocephalides felis [2]; 6 h, Rep1): 90% | mortality at 3.125 ppm (Ctenocephalides felis [2]; 6 h, Rep2): 70% | mortality at 12.5 ppm (Ctenocephalides felis [2]; 6 h, Rep1): 90% | mortality at 12.5 ppm (Ctenocephalides felis [2]; 6 h, Rep2): 100% | mortality at 50 ppm (Ctenocephalides felis [2]; 6 h, Rep1): 90% | mortality at 50 ppm (Ctenocephalides felis [2]; 6 h, Rep2): 70% | mortality at 0.003 ppm (Ctenocephalides felis [2]; 24 h, Rep1): 0% | mortality at 0.003 ppm (Ctenocephalides felis [2]; 24 h, Rep2): 0% | mortality at 0.012 ppm (Ctenocephalides felis [2]; 24 h, Rep1): 0% | mortality at 0.012 ppm (Ctenocephalides felis [2]; 24 h, Rep2): 0% | mortality at 0.049 ppm (Ctenocephalides felis [2]; 24 h, Rep1): 0% | mortality at 0.049 ppm (Ctenocephalides felis [2]; 24 h, Rep2): 10% | mortality at 0.2 ppm (Ctenocephalides felis [2]; 24 h, Rep1): 30% | mortality at 0.2 ppm (Ctenocephalides felis [2]; 24 h, Rep2): 80% | mortality at 0.78 ppm (Ctenocephalides felis [2]; 24 h, Rep1): 90% | mortality at 0.78 ppm (Ctenocephalides felis [2]; 24 h, Rep2): 90% | mortality at 3.125 ppm (Ctenocephalides felis [2]; 24 h, Rep1): 90% | mortality at 3.125 ppm (Ctenocephalides felis [2]; 24 h, Rep2): 90% | mortality at 12.5 ppm (Ctenocephalides felis [2]; 24 h, Rep1): 90% | mortality at 12.5 ppm (Ctenocephalides felis [2]; 24 h, Rep2): 100% | mortality at 50 ppm (Ctenocephalides felis [2]; 24 h, Rep1): 90% | mortality at 50 ppm (Ctenocephalides felis [2]; 24 h, Rep2): 80% | mortality at 0.003 ppm (Ctenocephalides felis [2]; 48 h, Rep1): 0% | mortality at 0.003 ppm (Ctenocephalides felis [2]; 48 h, Rep2): 0% | mortality at 0.012 ppm (Ctenocephalides felis [2]; 48 h, Rep1): 0% | mortality at 0.012 ppm (Ctenocephalides felis [2]; 48 h, Rep2): 0% | mortality at 0.049 ppm (Ctenocephalides felis [2]; 48 h, Rep1): 10% | mortality at 0.049 ppm (Ctenocephalides felis [2]; 48 h, Rep2): 10% | mortality at 0.2 ppm (Ctenocephalides felis [2]; 48 h, Rep1): 80% | mortality at 0.2 ppm (Ctenocephalides felis [2]; 48 h, Rep2): 80% | mortality at 0.78 ppm (Ctenocephalides felis [2]; 48 h, Rep1): 90% | mortality at 0.78 ppm (Ctenocephalides felis [2]; 48 h, Rep2): 100% | mortality at 3.125 ppm (Ctenocephalides felis [2]; 48 h, Rep1): 90% | mortality at 3.125 ppm (Ctenocephalides felis [2]; 48 h, Rep2): 100% | mortality at 12.5 ppm (Ctenocephalides felis [2]; 48 h, Rep1): 90% | mortality at 12.5 ppm (Ctenocephalides felis [2]; 48 h, Rep2): 100% | mortality at 50 ppm (Ctenocephalides felis [2]; 48 h, Rep1): 90% | mortality at 50 ppm (Ctenocephalides felis [2]; 48 h, Rep2): 90%
